PubChem BioAssay AID2060909 (Molecular Pharmacology Branch, DTP, NCI, 2025)

Test system: 362531-283-R-J2-PDC complex spheroid viability
Assay: Anticancer human tumor 362531-283-R-J2-PDC patient-derived colon adenocarcinoma cell line growth inhibition [RAS]
Details: for IC50: curve of first compound; for viability, T/C: stronger effect = lower value
Method in brief: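 Multi-cell-type spheroids: tumor cells plus HUVEC endothelial cells and mesenchymal stem cells. RAS-pathway inhibitors were combined with targeted agents, each dosed in half-log steps down from clinical Cmax, or from 10 microM when Cmax was unknown.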

[1] = second compound 0.000949 µM, first compound 0.0316 µM
[2] = second compound 0.000949 µM, first compound 0.1 µM
[3] = second compound 0.000949 µM, first compound 0.316 µM
[4] = second compound 0.000949 µM, first compound 1 µM
[5] = second compound 0.000949 µM, first compound 3.16 µM
[6] = second compound 0.000949 µM, first compound 10 µM
[7] = second compound 0.003 µM, first compound 0.0316 µM
[8] = second compound 0.003 µM, first compound 0.1 µM
[9] = second compound 0.003 µM, first compound 0.316 µM
[10] = second compound 0.003 µM, first compound 1 µM
[11] = second compound 0.003 µM, first compound 3.16 µM
[12] = second compound 0.003 µM, first compound 10 µM
[13] = second compound 0.00949 µM, first compound 0.0316 µM
[14] = second compound 0.00949 µM, first compound 0.1 µM
[15] = second compound 0.00949 µM, first compound 0.316 µM
[16] = second compound 0.00949 µM, first compound 1 µM
[17] = second compound 0.00949 µM, first compound 3.16 µM
[18] = second compound 0.00949 µM, first compound 10 µM
[19] = second compound 0.03 µM, first compound 0.0316 µM
[20] = second compound 0.03 µM, first compound 0.1 µM
[21] = second compound 0.03 µM, first compound 0.316 µM
[22] = second compound 0.03 µM, first compound 1 µM
[23] = second compound 0.03 µM, first compound 3.16 µM
[24] = second compound 0.03 µM, first compound 10 µM
[25] = second compound 0.0949 µM, first compound 0.0316 µM
[26] = second compound 0.0949 µM, first compound 0.1 µM
[27] = second compound 0.0949 µM, first compound 0.316 µM
[28] = second compound 0.0949 µM, first compound 1 µM
[29] = second compound 0.0949 µM, first compound 3.16 µM
[30] = second compound 0.0949 µM, first compound 10 µM
[31] = second compound 0.3 µM, first compound 0.0316 µM
[32] = second compound 0.3 µM, first compound 0.1 µM
[33] = second compound 0.3 µM, first compound 0.316 µM
[34] = second compound 0.3 µM, first compound 1 µM
[35] = second compound 0.3 µM, first compound 3.16 µM
[36] = second compound 0.3 µM, first compound 10 µM
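Also: spheroids exposed to the agents for 7 days before readout.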
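For viability, T/C in this document: luminescence viability as percent of DMSO vehicle control wells.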

CC(=O)OC12COC1CC(O)C1(C)C(=O)C(O)C3=C(C)C(OC(=O)C(O)C(NC(=O)OC(C)(C)C)c4ccccc4)CC(O)(C(OC(=O)c4ccccc4)C21)C3(C)C (stereo unspecified) + CCn1c(-c2cc(N3CCN(C)CC3)cnc2C(C)OC)c2c3cc(ccc31)-c1csc(n1)CC(NC(=O)C1CC1C)C(=O)N1CCCC(N1)C(=O)OCC(C)(C)C2
IC50 (second compound 0.000949 µM): 214 nM
IC50 (second compound 0.003 µM): 215 nM
IC50 (second compound 0.00949 µM): 192 nM
IC50 (second compound 0.03 µM): 164 nM
IC50 (second compound 0.0949 µM): 137 nM
IC50 (second compound 0.3 µM): < 31.6 nM
viability, T/C [1]: 92.9%
viability, T/C [2]: 95.2%
viability, T/C [3]: 27.5%
viability, T/C [4]: 16.7%
viability, T/C [5]: 18.1%
viability, T/C [6]: 31.9%
viability, T/C [7]: 103%
viability, T/C [8]: 92.7%
viability, T/C [9]: 28.7%
viability, T/C [10]: 13.6%
viability, T/C [11]: 19.1%
viability, T/C [12]: 19.9%
viability, T/C [13]: 94.2%
viability, T/C [14]: 91%
viability, T/C [15]: 18.8%
viability, T/C [16]: 12.9%
viability, T/C [17]: 9.58%
viability, T/C [18]: 15.8%
viability, T/C [19]: 76.8%
viability, T/C [20]: 77.5%
viability, T/C [21]: 14.2%
viability, T/C [22]: 7.82%
viability, T/C [23]: 8.32%
viability, T/C [24]: 11.6%
viability, T/C [25]: 68.7%
viability, T/C [26]: 65.5%
viability, T/C [27]: 9.07%
viability, T/C [28]: 7.86%
viability, T/C [29]: 8.53%
viability, T/C [30]: 7.69%
viability, T/C [31]: 43.2%
viability, T/C [32]: 20.1%
viability, T/C [33]: 7.36%
viability, T/C [34]: 4.87%
viability, T/C [35]: 5.33%
viability, T/C [36]: 4.75%

C=CC(=O)N1CCN(c2nc(OCC3CCCN3C)nc3c(F)c(-c4nc(N)cc(C)c4C(F)(F)F)c(Cl)cc23)C(C)C1 (stereo unspecified) + C#Cc1c(F)ccc2cc(O)cc(-c3ncc4c(N5CC6CCC(C5)N6)nc(OCC56CCCN5CC(F)C6)nc4c3F)c12
IC50 (second compound 0.0316 µM): > 1000 nM
IC50 (second compound 0.1 µM): > 1000 nM
IC50 (second compound 0.316 µM): > 1000 nM
IC50 (second compound 1 µM): > 1000 nM
IC50 (second compound 3.16 µM): > 1000 nM
IC50 (second compound 10 µM): < 3.16 nM
viability, T/C (second compound 0.0316 µM, first compound 0.00316 µM): 98.1%
viability, T/C (second compound 0.0316 µM, first compound 0.01 µM): 94.4%
viability, T/C (second compound 0.0316 µM, first compound 0.0316 µM): 95.5%
viability, T/C (second compound 0.0316 µM, first compound 0.1 µM): 98.4%
viability, T/C (second compound 0.0316 µM, first compound 0.316 µM): 97.8%
viability, T/C (second compound 0.0316 µM, first compound 1 µM): 89.6%
viability, T/C (second compound 0.1 µM, first compound 0.00316 µM): 93.6%
viability, T/C (second compound 0.1 µM, first compound 0.01 µM): 93.1%
viability, T/C (second compound 0.1 µM, first compound 0.0316 µM): 97.1%
viability, T/C (second compound 0.1 µM, first compound 0.1 µM): 92.3%
viability, T/C (second compound 0.1 µM, first compound 0.316 µM): 98.7%
viability, T/C (second compound 0.1 µM, first compound 1 µM): 98.3%
viability, T/C (second compound 0.316 µM, first compound 0.00316 µM): 82.6%
viability, T/C (second compound 0.316 µM, first compound 0.01 µM): 78.6%
viability, T/C (second compound 0.316 µM, first compound 0.0316 µM): 90.9%
viability, T/C (second compound 0.316 µM, first compound 0.1 µM): 97.8%
viability, T/C (second compound 0.316 µM, first compound 0.316 µM): 89.3%
viability, T/C (second compound 0.316 µM, first compound 1 µM): 90.7%
viability, T/C (second compound 1 µM, first compound 0.00316 µM): 80.7%
viability, T/C (second compound 1 µM, first compound 0.01 µM): 74.4%
viability, T/C (second compound 1 µM, first compound 0.0316 µM): 82.7%
viability, T/C (second compound 1 µM, first compound 0.1 µM): 70.4%
viability, T/C (second compound 1 µM, first compound 0.316 µM): 82.7%
viability, T/C (second compound 1 µM, first compound 1 µM): 74.4%
viability, T/C (second compound 3.16 µM, first compound 0.00316 µM): 66.5%
viability, T/C (second compound 3.16 µM, first compound 0.01 µM): 69%
viability, T/C (second compound 3.16 µM, first compound 0.0316 µM): 71.2%
viability, T/C (second compound 3.16 µM, first compound 0.1 µM): 80.8%
viability, T/C (second compound 3.16 µM, first compound 0.316 µM): 58.1%
viability, T/C (second compound 3.16 µM, first compound 1 µM): 71.7%
viability, T/C (second compound 10 µM, first compound 0.00316 µM): 39.9%
viability, T/C (second compound 10 µM, first compound 0.01 µM): 48%
viability, T/C (second compound 10 µM, first compound 0.0316 µM): 46.7%
viability, T/C (second compound 10 µM, first compound 0.1 µM): 38.1%
viability, T/C (second compound 10 µM, first compound 0.316 µM): 49.6%
viability, T/C (second compound 10 µM, first compound 1 µM): 42.7%

C[C@@H](NC(=O)c1ncnc(N)c1Cl)c1ncc(C(=O)Nc2cc(C(F)(F)F)c(Cl)cn2)s1 + CCn1c(-c2cc(N3CCN(C)CC3)cnc2C(C)OC)c2c3cc(ccc31)-c1csc(n1)CC(NC(=O)C1CC1C)C(=O)N1CCCC(N1)C(=O)OCC(C)(C)C2
IC50 (second compound 0.000949 µM): > 10000 nM
IC50 (second compound 0.003 µM): > 10000 nM
IC50 (second compound 0.00949 µM): > 10000 nM
IC50 (second compound 0.03 µM): > 10000 nM
IC50 (second compound 0.0949 µM): > 10000 nM
IC50 (second compound 0.3 µM): 3740 nM
viability, T/C [1]: 107%
viability, T/C [2]: 110%
viability, T/C [3]: 94.3%
viability, T/C [4]: 103%
viability, T/C [5]: 96.1%
viability, T/C [6]: 78.5%
viability, T/C [7]: 106%
viability, T/C [8]: 104%
viability, T/C [9]: 93.3%
viability, T/C [10]: 94.3%
viability, T/C [11]: 85.6%
viability, T/C [12]: 69.6%
viability, T/C [13]: 94%
viability, T/C [14]: 100%
viability, T/C [15]: 95.9%
viability, T/C [16]: 96.9%
viability, T/C [17]: 86.3%
viability, T/C [18]: 66%
viability, T/C [19]: 107%
viability, T/C [20]: 92.6%
viability, T/C [21]: 91.7%
viability, T/C [22]: 92%
viability, T/C [23]: 78%
viability, T/C [24]: 62.1%
viability, T/C [25]: 79.3%
viability, T/C [26]: 87%
viability, T/C [27]: 78.7%
viability, T/C [28]: 73.7%
viability, T/C [29]: 76.2%
viability, T/C [30]: 62.5%
viability, T/C [31]: 56.6%
viability, T/C [32]: 56.2%
viability, T/C [33]: 58.5%
viability, T/C [34]: 59.9%
viability, T/C [35]: 72%
viability, T/C [36]: 26.3%
